For orientation: Cmax means the highest concentration seen after dosing. The term Tmax denotes the time at which the peak concentration occurs. Usually half-life stands for the time in which the quantity being followed falls by half. The AUC is concentration integrated over time.

Data set [1] relates to cholesterol, lipoprotein and lipase levels. The following applies: testosterone esters; cited from earlier work.
The nature of data set [2]: Clinical study in hypogonadal men: serum hormone levels.
For a further data set, the system named is hypogonadal men. Briefly: Clinical study in 23 hypogonadal men: clinical findings (efficacy and side effects).
Data set [3] relates to endogenic testosterone production. Conditions: cited from earlier work; for inhibition of endogenic testosterone production: Oettel 1993.
Data set [4] can be described thus: Pharmacokinetic behaviour of DHT (patch) in combination with estriol gel, transdermal, 18 healthy young male test persons. Conditions: human, in vivo, topical or ocular. On the procedure: Pharmacokinetic Behaviour of Dihydrotestosterone (DHT) in Combination with Estriol Gel
In a randomized study, the pharmacokinetic behaviour of DHT and estriol after transdermal application was examined in 18 healthy young male test persons.
The DHT patch contains 150 mg of the active ingredient and was left on the test persons' skin for 24 hours. This galenic form releases 6 mg of DHT per day.
The estriol gel contains 5 mg of active ingredient in 0.5 g of gel. This gel formulation was applied one time to 150 cm^2 of skin (forearm).
For analysis, 12 blood samples were taken from each test person after the application over a period of 48 hours.

The conditions of data set [5]: 5α-dihydrotestosterone vs testosterone; cited from earlier work.
The conditions of data set [6]: cited from earlier work.
Data set [7] can be described thus: Pharmacokinetic behaviour of mesterolone in combination with estradiol valerate, single oral application, 24 healthy young male test persons. Conditions: human, in vivo. On the procedure: Pharmacokinetic Behaviour of Mesterolone in Combination with Estradiol Valerate (EV)
In a randomized study, the kinetic behaviour of mesterolone (25 mg tablet) in combination with EV (1 mg lozenge) after a single oral application was examined in 24 healthy young male test persons.
Each test person was administered mesterolone and EV after a monitored fasting period of 12 hours. After the application, 18 blood samples were taken from each test person over a period of 60 hours.

The mark [8] stands for this setting: mesterolone 25 mg tablet + EV 1 mg lozenge, single oral.

In the case of `CCCCCCC(=O)O[C@H]1CC[C@H]2[C@@H]3CCC4=CC(=O)CC[C@]4(C)[C@H]3CC[C@]12C` [testosterone enanthate], in data set [1], the “effect on HDL cholesterol” value is listed as “can cause a minor suppression”; the “effect on total and LDL cholesterol levels” value is “only have a minor effect”. Besides, the “LH levels in the serum / LH synthesis” value in data set [2] (12 months) was “reduced in the serum of all participants”. The “maximum values compared with testosterone levels in healthy men” value in data set [2] (Arm 1, 250 mg i.m.) is “significant increase”. Further, the cumulation result in data set [2] (Arm 1, testosterone, subsequent applications) is “no cumulation”. In addition, in the data set on hypogonadal men (12 months), the gynaecomastia entry is on record as “Five out of 12”; the “increase in the size of the prostatic glands / prostatic hyperplasia” value is “could not be detected”; the pelage increase entry is recorded as “All men experienced a pelage increase”; the “prostate-specific antigen (PSA), change” value is on record as “slightly up in all patients”. Further, in the data set with hypogonadal men (12 months), the volume/weight of testicles result is reported as “the volume of their testicles got smaller”. Besides, in the data set on hypogonadal men (Arm 1), the Collagen depletion entry is on record as “not detected”; the “thickening of the skin, increase in water retention, tension and elasticity of the tissue” value is “All participants in the study showed a thickening of the skin, an increase in water retention, and an improvement of the tension and elasticity of the tissue”. Moreover, the “improvement of the morning erection” value with hypogonadal men (Arm 1, 12 months) is reported as “Nine out of 12”. In addition, in the data set on hypogonadal men (Arm 1, n=12), the “patients free of complaints” value was “Nine”. For the same compound, in the data set with hypogonadal men (Arm 1 after 4 months of treatment, Arm 2 12 months), the “increased susceptibility to acne / development of acne” value is listed as “Seven of the 12”. Also, the “voice pitch / voice change” value with hypogonadal men (Arm 1 after 4 months, Arm 2 12 months) is on record as “voice pitch of all men lowered towards a bass tone”. Besides, the “increase in penis size” value with hypogonadal men (Arm 1 n=12, Arm 2 n=11, 12 months) was 11 men/patients. Besides, the bone density result in the data set on hypogonadal men (after 6 months of treatment) is on record as “All patients showed an apparent increase in bone density”. The symptoms of andropause entry with hypogonadal men (hot flashing, exhaustion, weakness of concentration, reduced efficiency, disgruntlement, disturbances of libido and potency) is reported as “became less frequent”. In data set [3] (patients with working gonadal testosterone biosynthesis (Humpel and Oettel 1994)), the “period of reversible inhibition of endogenic testosterone production” value is “about 2 weeks”.

In the case of `C[C@]12CC[C@@H]3c4ccc(O)cc4CC[C@H]3[C@@H]1C[C@@H](O)[C@@H]2O` [estriol], the Cmax in data set [4] (5 mg) came out at 0.00882 ± 0.00254 ng/mL.

Consider `C[C@]12CC[C@@H]3c4ccc(O)cc4CC[C@H]3[C@@H]1CC[C@@H]2O` [estradiol, 17β-estradiol], for which the “inhibition of endogenic testosterone production” value in data set [3] is given as “not been observed”.

`C[C@]12CCC(=O)C[C@@H]1CC[C@@H]1[C@@H]2CC[C@]2(C)[C@@H](O)CC[C@@H]12` [DHT, 5α-dihydrotestosterone]: the “activity relative to testosterone” value in data set [5] is given as “about twice as active as testosterone”. In data set [4] (150 mg), the Cmax is 4.51 ± 1.23 ng/mL. Besides, the “inhibition of endogenic testosterone production” value in data set [3] is listed as “not been observed”.

As to `C[C@]12CC[C@H]3[C@@H](CCC4=CC(=O)CC[C@@]43C)[C@@H]1CC[C@@H]2O` [testosterone], the “estradiol levels in the plasma” value in data set [6] (intramuscular injection (Tenover 1992)) was “doubled”. Besides, in data set [6] (percutaneous application (Kuhn 1986)), the “increase of estradiol levels in the plasma” value is given as 70%.

Turning to `C[C@H]1CC(=O)C[C@@H]2CC[C@H]3[C@@H]4CC[C@H](O)[C@@]4(C)CC[C@@H]3[C@]21C` [mesterolone], the concentration at 60 h in data set [7] (60 h after single oral mesterolone 25 mg + EV 1 mg) amounted to 0.48 ng/mL. For the same compound, in data set [7] (setting [8]), the Cmax was found to be 6.9 ng/mL, the Tmax was 8.9 h and the half-life is 13.2 h. The AUC at 60 h in data set [7] (mesterolone 25 mg tablet + EV 1 mg lozenge, single oral, 60 h) is 177 ng·h/mL. Further, the “inhibition of endogenic testosterone production” value in data set [3] is reported as “not been observed”.

The values above are taken from US5855905A, “Compound preparation for the treatment of hypogonadal men and men with hypophyseal diseases” (priority 1996, dated 1999).
